Laboratory results taken from US20100210722A1, “COMPOSITION FOR PREVENTING OR TREATING LIPID METABOLIC DISORDERS COMPRISING FUCOXANTHIN OR MARINE PLANT EXTRACT CONTAINING SAME” (AMICOGEN, INC., priority 2007, published 2010).
Marks after values point to notes of the source that are not given here.

Experiments:
Format in all cases: in vivo, C57BL/6N/CriBgi mice
[1] = Body weight of mice fed high fat diet with fucoxanthin extract or highly pure fucoxanthin; conditions: high fat diet; for Body weight, Week 0: Week 0 (baseline); for Body weight, Week 0 / Body weight, Week 1 / Body weight, Week 2: in g (unit assumed)
Experimental: (§1) Seventy (70) 4-week-old male C57BL/6N/CriBgi mice weighing 14 g were purchased from Orient, and reared in separate cages maintained at 24° C. and relative humidity of 55%, providing light from 08:00 until 20:00. The mice were accustomed while providing a pellet type diet for a week. The mice, which weighed 18.5-18.7 g, were grouped into seven groups by the randomized block design. Each group was given a different diet, as follows.
(§2) Test diets were as follows: “normal diet group”=AIN-76 semisynthetic diet of Teklad (Madison, Wl, USA); “high fat diet group”=normal diet+10% of corn oil and 10% of lard; “test group I”=high fat diet+fucoxanthin extract of Example 1 (fucoxanthin content=0.05%); “test group II”=high fat diet+fucoxanthin extract of Example 1 (fucoxanthin content=0.2%); “test group III”=high fat diet+fucoxanthin extract of Example 2 (fucoxanthin content=0.05%); “test group IV”=high fat diet+fucoxanthin extract of Example 2 (fucoxanthin content=0.2%). The 6 diets (normal diet, high fat diet, and test I, II, III and IV) were given to the animals for 6 weeks. Diet intake was recorded every day, and body weight was measured once a week.
During the 6-week test period, body weight was measured every week. Significance of differences of means of the groups was evaluated by one-way analysis of variance (ANOVA) technique. Duncan's multiple range test was employed for post-evaluation of the groups, with P<0.05.

[2] = Triglyceride and cholesterol level in plasma; conditions: high fat diet, 6 weeks, fasted 12 hours
Experimental: as §1, §2
The mice fed with the test diets for 6 weeks of Reference Example 1 were fasted for 12 hours. The mice were anesthetized first by ether inhalation, and then by intramuscular injection of ketamine-HCl (Yuhan). […] Plasma was separated by carrying out centrifuge at 3,000 rpm for 15 minutes. The separated plasma was stored at −70° C.

[3] = Amount of feces and cholesterol content in feces; conditions: high fat diet, 6 weeks
Experimental: as §1, §2
Feces were taken from the mice fed with the test diets for 6 weeks of Reference Example 1. The amount of feces and cholesterol content in the feces were measured.

malic enzyme (ME) = experiment: ME activity in adipose tissue; conditions: high fat diet, 6 weeks
Excerpt: as §2
The supernatant was centrifuged again at 12,000×g for 15 minutes. Then, the supernatant was subjected to high-speed centrifuging (Beckman, Optima TLX-120, USA) at 100,000×g for 1 hour. Then, change of the activity of enzymes involved in the synthesis of fatty acid—fatty acid synthase (FAS), glucose-6-phosphate dehydrogenase (G6PD) and malic enzyme (ME)—was measured.
The ME enzyme is also an enzyme that supplied reducing energy required for the synthesis of fatty acid. […] ME activity was determined as follows. […] After 2 minutes of reaction at 27° C., absorbance was measured at 340 nm. ME activity was calculated as nmol of NADPH produced per 1 mg of protein in cell per minute.

[4] = test system: carnitine palmitoyltransferase (CPT); experiment: CPT activity (mitochondrial fraction); conditions: high fat diet, 6 weeks
Excerpt: as §2
CPT is an enzyme involved in the oxidation of fatty acid and may be used as an index for the degree of oxidation of fatty acid. CPT activity was calculated from the measurement of CoASH produced from palmitoyl-CoA using 5,5-dithiobis-(2-nitrobenzoic acid) (DTNB). Specifically, 50 μL of mitochondrial fraction was added to a reaction solution containing 116 mM Tris-HCl (pH 8.0), 1.1 mM EDTA, 2.50 mM 1-carnitine, 0.5 mM DTNB, […] palmitoyl-CoA and 0.2% Triton X-100 to initiate reaction. Then, change of absorbance was measured at 25° C. and 412 nm for 2 minutes.

β-oxidation = experiment: Mitochondrial β-oxidation activity; conditions: mitochondrial fraction, high fat diet, 6 weeks
Excerpt: as §2
Mitochondrial β-oxidation activity was measured from the degree of reduction of NAD to NADH using palmitoyl-CoA. Specifically, 10 μL of mitochondrial fraction was added to a reaction solution containing 50 mM Tris-HCl (pH 8.0), 20 mM NAD, 0.33 M DTT, 1.5% BSA (1.5 g/100 mL), 2% Triton X-100 (2 g/100 mL), 10 mM CoA, 1 mM FAD, 100 mM KCN and 5 mM palmitoyl-CoA to initiate reaction. Then, change of absorbance was measured at 37° C. and 340 nm for 5 minutes. β-Oxidation activity was calculated as nmol of NADH produced per 1 mg of mitochondrial protein per minute.

[5] = fucoxanthin content 0.05% (Test I/III)
[6] = fucoxanthin content 0.2% (Test II/IV)

SMILES: CC(=O)O[C@H]1CC(C)(C)C(=C=C/C(C)=C/C=C/C(C)=C/C=C/C=C(C)/C=C/C=C(\C)C(=O)C[C@@]23O[C@]2(C)C[C@@H](O)CC3(C)C)[C@](C)(O)C1 [highly pure fucoxanthin, Fucoxanthin]
- Body weight, Week 0 [1, 5]: 18.56 ± 0.3
- Body weight, Week 1 [1, 5]: 20.19 ± 0.2
- Body weight, Week 2 [1, 5]: 21.79 ± 0.3
- Body weight, Week 3 [1, 5]: 22.70 ± 0.2^b
- Body weight, Week 4 [1, 5]: 24.39 ± 0.3^b
- Body weight, Week 5 [1, 5]: 26.46 ± 0.3^b
- Body weight, Week 6 [1, 5]: 27.80 ± 0.3^b
- Body weight, Week 0 [1, 6]: 18.58 ± 0.3
- Body weight, Week 1 [1, 6]: 20.19 ± 0.3
- Body weight, Week 2 [1, 6]: 22.30 ± 0.3
- Body weight, Week 3 [1, 6]: 22.96 ± 0.4^ab
- Body weight, Week 4 [1, 6]: 25.17 ± 0.5^ab
- Body weight, Week 5 [1, 6]: 26.39 ± 0.6^b
- Body weight, Week 6 [1, 6]: 27.37 ± 0.7^bc
- Cholesterol level in plasma [2, 5]: 2.35 ± 0.22^a mmol/L
- Triglyceride level in plasma [2, 5]: 1.15 ± 0.07^b mmol/L
- Cholesterol level in plasma [2, 6]: 2.35 ± 0.11^b mmol/L
- Triglyceride level in plasma [2, 6]: 1.24 ± 0.07^b mmol/L
- Amount of feces [3, 5]: 0.226 ± 0.01^c g/day
- Cholesterol content in feces [3, 5]: 237.88 ± 10.39^c umol/g
- Amount of feces [3, 6]: 0.209 ± 0.01^bc g/day
- Cholesterol content in feces [3, 6]: 508.79 ± 13.25^c umol/g
- ME activity (malic enzyme (ME); [5]): 0.92 ± 0.14^a mmol/min/mg protein
- ME activity (malic enzyme (ME); [6]): 0.94 ± 0.11^a mmol/min/mg protein
- CPT activity [4, 5]: 13.36 ± 1.66^ab mmol/min/mg protein
- CPT activity [4, 6]: 40.30 ± 12.10^c mmol/min/mg protein
- β-Oxidation activity (β-oxidation; [5]): 9.46 ± 2.56^bc mmol/min/mg protein
- β-Oxidation activity (β-oxidation; [6]): 13.28 ± 3.79^c mmol/min/mg protein
